For this assay, the system named is Pseudomonas aeruginosa isolates b1121, b2631, b3144. Kind of assay: Tobramycin MIC of the challenge isolates. Format: cell-based. Conditions: read-out: TOB MIC.

Like-named read-outs stand apart in the source and are kept apart here.

As to `NC[C@H]1O[C@H](O[C@H]2[C@H](O)[C@@H](O[C@H]3O[C@H](CO)[C@@H](O)[C@H](N)[C@H]3O)[C@H](N)C[C@@H]2N)[C@H](N)C[C@@H]1O` [TOB, tobramycin], the MIC (usually the lowest concentration that inhibits growth of the organism) runs as follows: (isolate b1121, Respiratory) 0.5 µg/mL; (isolate b2631, CF isolate) 0.5 µg/mL; (isolate b3144, CF isolate) 2 µg/mL.

The values above are taken from patent US20240011041A1, “PHAGE COMPOSITIONS FOR P[…]-CAS SYSTEMS AND METHODS OF USE THEREOF” (priority 2020, published 2024).
